Assay results published in ChEMBL document CHEMBL4393656, “Cationic biaryl 1,2,3-triazolyl peptidomimetic amphiphiles targeting Clostridioides (Clostridium) difficile: Synthesis, antibacterial evaluation and an in vivo C. difficile infection model” (Eur J Med Chem, 2019).
Values after ≈ are worked out from the molar mass of the structure shown. Active and inactive are the calls of the source. No cut-off for these calls is given here.

Assays:
[1] = test system: Clostridioides difficile; assay: (§1) Antibacterial activity against Clostridium difficile ribotype 027 M7404 spores infected in antibiotic cocktail-induced CDI C57BL/6J mouse model assessed as decrease in physiological appearance score at 100 mg/kg administered via oral gavage for every 12 hrs starting from 6 hrs post-infection and measured at 24 hrs post infection; assay type: functional, organism-based; conditions: genomovar ribotype 027 M7404
[2] = test system: Clostridioides difficile; assay: as §1, with “decrease in fecal spore load at 100” for “decrease in physiological appearance score at 100”, “post infection by heat shock based plating method” for “post infection”; assay type: functional, organism-based; conditions: genomovar ribotype 027 M7404
[3] = test system: Clostridioides difficile; assay: as §1, with “weight loss” for “physiological appearance score”; assay type: functional, organism-based; conditions: genomovar ribotype 027 M7404
[4] = test system: Clostridioides difficile; assay: as §1, with “diarrhea” for “physiological appearance score”; assay type: functional, organism-based; conditions: genomovar ribotype 027 M7404
[5] = test system: Clostridioides difficile; assay: as §1, with “protection against bacterial infection” for “decrease in physiological appearance score”, “2 days” for “24 hrs”; assay type: functional, organism-based; conditions: genomovar ribotype 027 M7404
[6] = test system: Clostridioides difficile; assay: Antibacterial activity against Clostridium difficile ATCC 700057 incubated for 2 to 4 hrs in pre-reduced brucella broth supplemented with haemin/vitamin K and further incubation in anaerobic condition for 48 hrs; assay type: functional
[7] = test system: Staphylococcus aureus; assay: Growth inhibition of methicillin-resistant Staphylococcus aureus ATCC 43300 incubated for 18 hrs; assay type: organism-based
[8] = test system: Acinetobacter baumannii; assay: Growth inhibition of Acinetobacter baumannii ATCC 19606 incubated for 18 hrs without shaking by absorbance based monochromator plate reader analysis; assay type: organism-based, ATCC 19606 = CIP 70.34 = JCM 6841; conditions: in vitro
[9] = test system: Enterococcus faecalis; assay: Growth inhibition of Enterococcus faecalis ATCC 29212 incubated in MHB broth for 24 hrs; assay type: organism-based
[10] = test system: Escherichia coli; assay: Growth inhibition of Escherichia coli ATCC 25922 incubated for 18 hrs; assay type: organism-based
[11] = test system: Clostridioides difficile; assay: Antibacterial activity against Clostridium difficile NSW132 RT027 incubated for 2 to 4 hrs in pre-reduced brucella broth supplemented with haemin/vitamin K and further incubation in anaerobic condition for 48 hrs; assay type: functional
[12] = test system: Klebsiella pneumoniae; assay: Growth inhibition of Klebsiella pneumoniae ATCC 700603 incubated for 18 hrs; assay type: organism-based
[13] = Haemolytic activity in sheep erythrocytes assessed as induction of haemolysis at 50 ug/ml incubated for 2 hrs relative to control; assay type: cell-based, Ovis aries, Erythrocyte; conditions: read-out: Activity
[14] = Haemolytic activity in sheep erythrocytes assessed as induction of haemolysis at 5 ug/ml incubated for 2 hrs relative to control; assay type: cell-based, Ovis aries, Erythrocyte; conditions: read-out: Activity
[15] = Cytotoxicity against HEK293 cells assessed as decrease in cell viability after 20 hrs by resazurin dye-based fluorescence assay; conditions: human
[16] = test system: Staphylococcus aureus; assay: Growth inhibition of Staphylococcus aureus ATCC 29213 incubated in MHB broth for 24 hrs; assay type: organism-based
[17] = test system: Pseudomonas aeruginosa; assay: Growth inhibition of Pseudomonas aeruginosa ATCC 27853 incubated for 18 hrs; assay type: organism-based
[18] = test system: Streptococcus pneumoniae; assay: Growth inhibition of Streptococcus pneumoniae ATCC 49619 incubated in MHB medium with lysed horse blood and 5% CO2 for 24 hrs; assay type: organism-based
[19] = test system: Staphylococcus aureus; assay: Growth inhibition of methicillin resistant Staphylococcus aureus NCTC 10442 incubated in MHB medium for 24 hrs; assay type: organism-based
[20] = test system: Staphylococcus aureus; assay: Induction of cytoplasmic membrane depolarization in Staphylococcus aureus ATCC 29213 at 8 ug/ml by DiSC3-5 dye based fluorescence method; assay type: organism-based
[21] = test system: Staphylococcus aureus; assay: Induction of cytoplasmic membrane permeabilization in Staphylococcus aureus ATCC 29213 at 8 ug/ml by propidium iodide staining based fluorescence method; assay type: organism-based

| SMILES | MIC [6] | MIC [7] | MIC [8] | MIC [9] | MIC [10] | MIC [11] | MIC [12] | CC50 at 20 h [15] | MIC [16] | MIC [17] | MIC [18] | MIC [19] | other results |
| --- | --- | --- | --- | --- | --- | --- | --- | --- | --- | --- | --- | --- | --- |
| CC(C)CCOc1ccccc1-c1ccccc1OCc1cn(C[C@@H](CCCCN)NC(=O)[C@@H](CCCNC(=N)N)n2cc(C3CCCCC3)nn2)nn1.Cl.Cl | 4 µg/mL |  |  |  |  |  |  |  |  |  |  |  | Activity [1]: inactive; Activity [2]: inactive; Activity [3]: inactive; Activity [4]: inactive; Activity [5]: inactive |
| CC(C)CCOc1ccc2ccccc2c1-c1c(OCc2cn([C@H](CCCCN)C(=O)N[C@H](CCCNC(=N)N)Cn3cc(CCc4ccccc4)nn3)nn2)ccc2ccccc12.Cl.Cl | 16 µg/mL | 2 µg/mL | 8 µg/mL | 4 µg/mL | > 32 µg/mL | 16 µg/mL | > 32 µg/mL | > 32 µg/mL | 4 µg/mL | 16 µg/mL | 4 µg/mL |  | hemolysis at 2 h, 50 ug/ml [13]: 75.2%; hemolysis at 2 h, 5 ug/ml [14]: 1.5% |
| CC(C)CCOc1ccccc1-c1ccccc1OCc1cn([C@H](CCCNC(=N)N)C(=O)Nc2cccc(F)c2)nn1.Cl | 32 µg/mL | 4 µg/mL | > 32 µg/mL | 8 µg/mL | > 32 µg/mL | 64 µg/mL | > 32 µg/mL | > 32 µg/mL | 4 µg/mL | > 32 µg/mL | 8 µg/mL | 8 µg/mL |  |
| CN[C@H](CC(C)C)C(=O)N[C@H]1C(=O)N[C@@H](CC(N)=O)C(=O)N[C@H]2C(=O)N[C@H]3C(=O)N[C@H](C(=O)N[C@H](C(=O)O)c4cc(O)cc(O)c4-c4cc3ccc4O)[C@H](O)c3ccc(c(Cl)c3)Oc3cc2cc(c3O[C@@H]2O[C@H](CO)[C@@H](O)[C@H](O)[C@H]2O[C@H]2C[C@](C)(N)[C@H](O)[C@H](C)O2)Oc2ccc(cc2Cl)[C@H]1O [VANCOMYCIN] | 0.5 µg/mL (≈ 0.345 µM) | 1 µg/mL (≈ 0.69 µM) |  | 4 µg/mL (≈ 2.76 µM) |  | 0.5 µg/mL (≈ 0.345 µM) |  |  | 1 µg/mL (≈ 0.69 µM) |  | 1 µg/mL (≈ 0.69 µM) | 1 µg/mL (≈ 0.69 µM) | Activity [20]: inactive; Activity [21]: inactive |
| CC(C)CCOc1ccc2ccccc2c1-c1c(OCc2cn([C@H](CCCNC(=N)N)C(=O)N[C@H](CCCCN)Cn3cc(CC4CCCCC4)nn3)nn2)ccc2ccccc12.Cl.Cl | 8 µg/mL |  | 32 µg/mL | 4 µg/mL | > 32 µg/mL | 8 µg/mL | > 32 µg/mL | > 32 µg/mL | 4 µg/mL | 32 µg/mL | 2 µg/mL |  | hemolysis at 2 h, 50 ug/ml [13]: 71.5%; hemolysis at 2 h, 5 ug/ml [14]: 1.8% |
| CC(C)CCOc1ccccc1-c1ccccc1OCc1cn(C[C@@H](CCCCN)NC(=O)[C@@H](CCCNC(=N)N)n2cc(CC3CCCCC3)nn2)nn1.Cl.Cl | 1 µg/mL |  |  |  |  |  |  |  |  |  |  |  | Activity [1]: inactive; Activity [2]: inactive; Activity [3]: inactive; Activity [4]: inactive; Activity [5]: inactive |
| CC(C)CCOc1ccc2ccccc2c1-c1c(OCc2cn([C@H](CCCNC(=N)N)C(=O)NCc3ccccc3)nn2)ccc2ccccc12.Cl | 16 µg/mL | 8 µg/mL | > 32 µg/mL | 2 µg/mL | > 32 µg/mL | 16 µg/mL | > 32 µg/mL | 16.5 µg/mL | 4 µg/mL | > 32 µg/mL | 8 µg/mL | 8 µg/mL |  |
| CC(C)CCOc1ccccc1-c1ccccc1OCc1cn([C@H](CCCCN)C(=O)NCCc2ccc(F)cc2)nn1.Cl | 32 µg/mL | 8 µg/mL | 16 µg/mL | 8 µg/mL | > 32 µg/mL | 64 µg/mL | > 32 µg/mL | 5.5 µg/mL | 4 µg/mL | > 32 µg/mL | 8 µg/mL | 8 µg/mL |  |
| CC(C)CCOc1ccc2ccccc2c1-c1c(OCc2cn([C@H](CCCNC(=N)N)C(=O)NCCc3ccccc3)nn2)ccc2ccccc12.Cl | 16 µg/mL | 8 µg/mL | > 32 µg/mL | 4 µg/mL | > 32 µg/mL | 64 µg/mL | > 32 µg/mL | > 32 µg/mL | 8 µg/mL | > 32 µg/mL | 16 µg/mL |  | hemolysis at 2 h, 50 ug/ml [13]: 55.2%; hemolysis at 2 h, 5 ug/ml [14]: 0.1% |
| CC(C)CCOc1ccccc1-c1ccccc1OCc1cn([C@H](CCCNC(=N)N)C(=O)NCc2ccccc2)nn1.Cl | 32 µg/mL | 8 µg/mL | 32 µg/mL | 8 µg/mL | > 32 µg/mL | 64 µg/mL | > 32 µg/mL | 16.8 µg/mL | 4 µg/mL | > 32 µg/mL | 4 µg/mL | 8 µg/mL |  |
| CC(C)CCOc1ccc2ccccc2c1-c1c(OCc2cn([C@H](CCCCN)C(=O)N[C@H](CCCNC(=N)N)C(=O)NCc3ccccc3)nn2)ccc2ccccc12.Cl.Cl | 16 µg/mL | 4 µg/mL | 32 µg/mL | 8 µg/mL | > 32 µg/mL | 16 µg/mL | 32 µg/mL | 17.4 µg/mL | 8 µg/mL | 32 µg/mL | 8 µg/mL |  |  |
| CC(C)CCOc1ccc2ccccc2c1-c1c(OCc2cn([C@H](CCCCN)C(=O)N[C@H](CCCNC(=N)N)C(=O)NCCc3ccccc3)nn2)ccc2ccccc12.Cl.Cl | 16 µg/mL | 2 µg/mL | 8 µg/mL | 4 µg/mL | > 32 µg/mL | 32 µg/mL | 16 µg/mL | 15.2 µg/mL | 8 µg/mL | 32 µg/mL | 8 µg/mL |  |  |
| CC(C)CCOc1ccccc1-c1ccccc1OCc1cn([C@H](CCCNC(=N)N)C(=O)N[C@H](CCCCN)Cn2cc(CCc3ccccc3)nn2)nn1.Cl.Cl | 16 µg/mL | 4 µg/mL | 32 µg/mL | 8 µg/mL | 16 µg/mL | 16 µg/mL | 16 µg/mL | > 32 µg/mL | 4 µg/mL | 16 µg/mL | 2 µg/mL | 8 µg/mL |  |
| CC(C)CCOc1ccccc1-c1ccccc1OCc1cn([C@H](CCCCN)C(=O)NC2CCCCC2)nn1.Cl | 16 µg/mL | 8 µg/mL | 32 µg/mL | 16 µg/mL | > 32 µg/mL | 32 µg/mL | > 32 µg/mL | > 32 µg/mL | 8 µg/mL | 32 µg/mL | 8 µg/mL |  |  |
| CC(C)CCOc1ccccc1-c1ccccc1OCc1cn([C@H](CCCNC(=N)N)C(=O)N[C@H](CCCCN)Cn2cc(CC3CCCCC3)nn2)nn1.Cl.Cl | 8 µg/mL | 8 µg/mL | 16 µg/mL | 4 µg/mL | 16 µg/mL | 16 µg/mL | 16 µg/mL | > 32 µg/mL | 4 µg/mL | 16 µg/mL | 2 µg/mL |  | hemolysis at 2 h, 50 ug/ml [13]: 33.7%; hemolysis at 2 h, 5 ug/ml [14]: 1.6% |
| CC(C)CCOc1ccc2ccccc2c1-c1c(OCC(=O)N[C@H](CCCNC(=N)N)C(=O)NCCc2ccccc2)ccc2ccccc12.Cl | 32 µg/mL | 4 µg/mL | > 32 µg/mL | 4 µg/mL | > 32 µg/mL | 32 µg/mL | > 32 µg/mL | > 32 µg/mL | 2 µg/mL | > 32 µg/mL | 2 µg/mL |  |  |
| CC(C)CCOc1ccc2ccccc2c1-c1c(OCc2cn([C@H](CCCCN)C(=O)N[C@H](CCCNC(=N)N)C(=O)N3CCCCC3)nn2)ccc2ccccc12.Cl.Cl | 16 µg/mL | 2 µg/mL | 8 µg/mL | 8 µg/mL | 32 µg/mL | 32 µg/mL | 16 µg/mL | 16.8 µg/mL | 8 µg/mL | 16 µg/mL | 8 µg/mL |  |  |
